Reference: the supplement of paper PMC6315032

Key:
Assay in all cases: apparent dissociation constant (pKDapp, Kinobeads competition, Cheng-Prusoff corrected) (-log10 M); higher = tighter binding
ABL1 = ABL1 (UniProt P00519); conditions: affinity matrix / lysate: Kinobeads, mixed HEK293/K-562/placenta lysate
MAPK8 = MAPK8 (UniProt P45983); conditions: affinity matrix / lysate: Kinobeads, mixed HEK293/K-562/placenta lysate
CAMKK1 = CAMKK1 (UniProt Q8N5S9); conditions: affinity matrix / lysate: Kinobeads, mixed HEK293/K-562/placenta lysate
EPHA4 = EPHA4 (UniProt P54764); conditions: affinity matrix / lysate: Kinobeads, mixed HEK293/K-562/placenta lysate
PIK3C3 = PIK3C3 (UniProt Q8NEB9); conditions: affinity matrix / lysate: Lipid Kinobeads, mixed HeLa/Jurkat/K-562 lysate
MYLK = MYLK (UniProt Q15746); conditions: affinity matrix / lysate: Kinobeads, mixed HEK293/K-562/placenta lysate
BMX = BMX (UniProt P51813); conditions: affinity matrix / lysate: Kinobeads, mixed HEK293/K-562/placenta lysate
MAPKAPK3 = MAPKAPK3 (UniProt Q16644); conditions: affinity matrix / lysate: Kinobeads, mixed HEK293/K-562/placenta lysate
RPS6KA5 = RPS6KA5 (UniProt O75582); conditions: affinity matrix / lysate: Kinobeads, mixed HEK293/K-562/placenta lysate
PI4KA = PI4KA (UniProt P42356)
DSTYK = DSTYK (UniProt Q6XUX3); conditions: affinity matrix / lysate: Kinobeads, mixed HEK293/K-562/placenta lysate
PCTK1 = PCTK1 (UniProt Q00536); conditions: affinity matrix / lysate: Kinobeads, mixed HEK293/K-562/placenta lysate
EPHB2 = EPHB2 (UniProt P29323); conditions: affinity matrix / lysate: Kinobeads, mixed HEK293/K-562/placenta lysate
MAP3K3 = MAP3K3 (UniProt Q99759); conditions: affinity matrix / lysate: Kinobeads, mixed HEK293/K-562/placenta lysate
CLK1 = CLK1 (UniProt P49759); conditions: affinity matrix / lysate: Kinobeads, mixed HEK293/K-562/placenta lysate
PRKD1 = PRKD1 (UniProt Q15139); conditions: affinity matrix / lysate: Kinobeads, mixed HEK293/K-562/placenta lysate
LRRK2 = LRRK2 (UniProt Q5S007); conditions: affinity matrix / lysate: Kinobeads, mixed HEK293/K-562/placenta lysate
RPS6KA1 = RPS6KA1 (UniProt Q15418); conditions: affinity matrix / lysate: Kinobeads, mixed HEK293/K-562/placenta lysate
FGR = FGR (UniProt P09769); conditions: affinity matrix / lysate: Kinobeads, mixed HEK293/K-562/placenta lysate
EPHA3 = EPHA3 (UniProt P29320); conditions: affinity matrix / lysate: Kinobeads, mixed HEK293/K-562/placenta lysate
MAP2K1 = MAP2K1 (UniProt Q02750); conditions: affinity matrix / lysate: Kinobeads, mixed HEK293/K-562/placenta lysate
GAK = GAK (UniProt O14976); conditions: affinity matrix / lysate: Kinobeads, mixed HEK293/K-562/placenta lysate
TP53RK = TP53RK (UniProt Q96S44); conditions: affinity matrix / lysate: Kinobeads, mixed HEK293/K-562/placenta lysate
IRAK1 = IRAK1 (UniProt P51617); conditions: affinity matrix / lysate: Kinobeads, mixed HEK293/K-562/placenta lysate
CDK5 = CDK5 (UniProt Q00535); conditions: affinity matrix / lysate: Kinobeads, mixed HEK293/K-562/placenta lysate
PRKCA = PRKCA (UniProt P17252); conditions: affinity matrix / lysate: Kinobeads, mixed HEK293/K-562/placenta lysate
FYN = FYN (UniProt P06241); conditions: affinity matrix / lysate: Kinobeads, mixed HEK293/K-562/placenta lysate
MAP3K7 = MAP3K7 (UniProt O43318); conditions: affinity matrix / lysate: Kinobeads, mixed HEK293/K-562/placenta lysate
NTRK1 = NTRK1 (UniProt P04629); conditions: affinity matrix / lysate: Kinobeads, mixed HEK293/K-562/placenta lysate
PIK3CB = PIK3CB (UniProt P42338); conditions: affinity matrix / lysate: Lipid Kinobeads, mixed HeLa/Jurkat/K-562 lysate
NEK3 = NEK3 (UniProt P51956); conditions: affinity matrix / lysate: Kinobeads, mixed HEK293/K-562/placenta lysate
STK38 = STK38 (UniProt Q15208); conditions: affinity matrix / lysate: Kinobeads, mixed HEK293/K-562/placenta lysate
SIK2 = SIK2 (UniProt Q9H0K1); conditions: affinity matrix / lysate: Kinobeads, mixed HEK293/K-562/placenta lysate
[1] = affinity matrix / lysate: Lipid Kinobeads, mixed HeLa/Jurkat/K-562 lysate

Measured: apparent dissociation constant (-log10 M)

Sequence of PI4KA (P42356 whole entry, looked up): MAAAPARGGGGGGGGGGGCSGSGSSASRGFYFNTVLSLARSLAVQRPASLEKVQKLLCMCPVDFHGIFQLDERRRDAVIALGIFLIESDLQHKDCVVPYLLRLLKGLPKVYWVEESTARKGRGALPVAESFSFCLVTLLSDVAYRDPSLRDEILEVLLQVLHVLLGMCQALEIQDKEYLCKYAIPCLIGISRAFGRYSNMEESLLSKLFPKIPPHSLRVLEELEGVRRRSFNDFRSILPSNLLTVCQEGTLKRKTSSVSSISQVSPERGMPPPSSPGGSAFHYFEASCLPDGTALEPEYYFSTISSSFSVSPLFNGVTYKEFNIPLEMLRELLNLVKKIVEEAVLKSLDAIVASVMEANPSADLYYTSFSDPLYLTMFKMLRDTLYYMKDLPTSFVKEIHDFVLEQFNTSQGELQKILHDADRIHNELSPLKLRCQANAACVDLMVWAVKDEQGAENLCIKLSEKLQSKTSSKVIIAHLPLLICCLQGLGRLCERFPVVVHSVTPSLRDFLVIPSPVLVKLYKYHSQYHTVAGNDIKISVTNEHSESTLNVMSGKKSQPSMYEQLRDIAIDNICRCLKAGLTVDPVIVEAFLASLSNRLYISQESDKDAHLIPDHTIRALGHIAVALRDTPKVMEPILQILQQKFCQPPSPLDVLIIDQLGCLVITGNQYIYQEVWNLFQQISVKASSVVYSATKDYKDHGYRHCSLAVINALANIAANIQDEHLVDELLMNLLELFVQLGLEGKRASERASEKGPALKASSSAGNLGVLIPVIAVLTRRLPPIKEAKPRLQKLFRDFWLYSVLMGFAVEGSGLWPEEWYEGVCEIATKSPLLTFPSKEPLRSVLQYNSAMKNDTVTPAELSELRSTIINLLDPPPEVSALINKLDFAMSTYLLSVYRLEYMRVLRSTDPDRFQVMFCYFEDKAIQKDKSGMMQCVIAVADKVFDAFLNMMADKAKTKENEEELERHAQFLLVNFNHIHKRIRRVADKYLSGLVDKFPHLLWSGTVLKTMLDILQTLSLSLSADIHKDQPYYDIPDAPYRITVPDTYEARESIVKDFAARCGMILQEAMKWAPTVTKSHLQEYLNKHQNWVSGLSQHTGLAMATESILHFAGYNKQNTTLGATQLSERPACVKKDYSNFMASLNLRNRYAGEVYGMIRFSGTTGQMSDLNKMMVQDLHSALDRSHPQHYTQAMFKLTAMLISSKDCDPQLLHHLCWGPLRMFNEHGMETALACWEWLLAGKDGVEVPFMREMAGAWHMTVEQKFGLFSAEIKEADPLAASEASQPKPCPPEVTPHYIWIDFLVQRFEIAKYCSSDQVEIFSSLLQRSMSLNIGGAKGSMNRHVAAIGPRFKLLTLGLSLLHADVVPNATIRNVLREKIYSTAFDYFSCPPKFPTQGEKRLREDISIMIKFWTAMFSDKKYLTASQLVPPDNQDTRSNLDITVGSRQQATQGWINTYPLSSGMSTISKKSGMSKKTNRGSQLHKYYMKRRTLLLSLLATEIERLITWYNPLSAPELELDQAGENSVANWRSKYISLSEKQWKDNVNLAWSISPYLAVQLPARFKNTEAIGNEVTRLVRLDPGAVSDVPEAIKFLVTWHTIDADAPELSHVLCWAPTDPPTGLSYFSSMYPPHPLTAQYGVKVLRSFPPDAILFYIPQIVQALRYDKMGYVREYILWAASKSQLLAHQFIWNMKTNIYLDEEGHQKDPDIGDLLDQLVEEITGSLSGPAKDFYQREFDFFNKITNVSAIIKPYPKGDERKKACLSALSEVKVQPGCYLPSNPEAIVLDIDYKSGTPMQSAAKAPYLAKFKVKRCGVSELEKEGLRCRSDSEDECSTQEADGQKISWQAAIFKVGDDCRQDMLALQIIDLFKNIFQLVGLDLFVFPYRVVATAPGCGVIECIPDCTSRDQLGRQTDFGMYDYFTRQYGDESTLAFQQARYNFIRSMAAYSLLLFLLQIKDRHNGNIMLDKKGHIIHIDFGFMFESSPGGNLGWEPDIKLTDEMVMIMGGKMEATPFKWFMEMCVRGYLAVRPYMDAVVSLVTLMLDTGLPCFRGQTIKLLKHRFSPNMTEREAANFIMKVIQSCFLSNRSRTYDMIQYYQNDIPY
Sequence of MAP3K3 (Q99759 whole entry): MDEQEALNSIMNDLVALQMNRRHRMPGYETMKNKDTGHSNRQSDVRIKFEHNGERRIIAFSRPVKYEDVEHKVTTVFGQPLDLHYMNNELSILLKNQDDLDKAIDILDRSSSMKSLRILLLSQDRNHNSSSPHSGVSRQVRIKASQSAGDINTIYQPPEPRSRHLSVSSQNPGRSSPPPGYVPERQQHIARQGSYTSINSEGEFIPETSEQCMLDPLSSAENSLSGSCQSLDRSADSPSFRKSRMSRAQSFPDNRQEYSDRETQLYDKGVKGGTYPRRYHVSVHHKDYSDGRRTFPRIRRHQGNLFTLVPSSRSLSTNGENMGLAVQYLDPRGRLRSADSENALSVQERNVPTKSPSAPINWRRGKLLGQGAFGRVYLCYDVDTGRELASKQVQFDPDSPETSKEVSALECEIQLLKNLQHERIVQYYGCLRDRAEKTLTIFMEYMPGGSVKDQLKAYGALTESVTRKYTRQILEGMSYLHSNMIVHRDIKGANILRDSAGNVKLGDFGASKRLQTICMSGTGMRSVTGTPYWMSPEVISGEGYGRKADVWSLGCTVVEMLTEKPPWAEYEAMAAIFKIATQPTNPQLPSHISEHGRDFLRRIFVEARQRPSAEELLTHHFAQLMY
Sequence of PIK3CB (P42338 whole entry, looked up): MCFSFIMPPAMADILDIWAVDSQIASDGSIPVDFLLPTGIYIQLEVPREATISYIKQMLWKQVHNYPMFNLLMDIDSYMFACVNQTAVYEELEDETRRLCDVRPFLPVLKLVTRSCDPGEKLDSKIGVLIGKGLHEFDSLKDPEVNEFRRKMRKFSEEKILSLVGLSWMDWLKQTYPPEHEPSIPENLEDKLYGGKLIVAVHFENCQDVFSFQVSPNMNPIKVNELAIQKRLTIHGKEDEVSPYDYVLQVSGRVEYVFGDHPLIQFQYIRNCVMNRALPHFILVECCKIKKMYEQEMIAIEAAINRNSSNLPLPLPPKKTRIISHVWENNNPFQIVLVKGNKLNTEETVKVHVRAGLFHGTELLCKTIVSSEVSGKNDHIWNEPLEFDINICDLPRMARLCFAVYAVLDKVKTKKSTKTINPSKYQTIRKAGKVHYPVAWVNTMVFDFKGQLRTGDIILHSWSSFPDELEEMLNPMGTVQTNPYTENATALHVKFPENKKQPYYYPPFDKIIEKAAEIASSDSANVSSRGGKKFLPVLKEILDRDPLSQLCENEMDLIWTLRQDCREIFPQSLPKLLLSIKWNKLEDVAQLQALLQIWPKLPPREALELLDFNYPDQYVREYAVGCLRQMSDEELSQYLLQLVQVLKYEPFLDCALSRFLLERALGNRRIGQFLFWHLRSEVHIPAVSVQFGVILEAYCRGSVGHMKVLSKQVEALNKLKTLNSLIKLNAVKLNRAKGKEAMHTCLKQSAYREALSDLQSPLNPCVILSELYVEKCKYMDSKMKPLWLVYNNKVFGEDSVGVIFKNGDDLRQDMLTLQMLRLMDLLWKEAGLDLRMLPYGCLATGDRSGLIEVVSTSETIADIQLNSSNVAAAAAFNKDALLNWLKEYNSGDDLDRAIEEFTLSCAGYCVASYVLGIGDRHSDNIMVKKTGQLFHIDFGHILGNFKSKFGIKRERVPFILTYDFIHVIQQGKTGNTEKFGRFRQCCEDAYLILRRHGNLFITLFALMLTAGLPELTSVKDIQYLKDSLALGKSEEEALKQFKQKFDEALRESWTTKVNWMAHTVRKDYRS
Sequence of DSTYK (Q6XUX3 whole entry): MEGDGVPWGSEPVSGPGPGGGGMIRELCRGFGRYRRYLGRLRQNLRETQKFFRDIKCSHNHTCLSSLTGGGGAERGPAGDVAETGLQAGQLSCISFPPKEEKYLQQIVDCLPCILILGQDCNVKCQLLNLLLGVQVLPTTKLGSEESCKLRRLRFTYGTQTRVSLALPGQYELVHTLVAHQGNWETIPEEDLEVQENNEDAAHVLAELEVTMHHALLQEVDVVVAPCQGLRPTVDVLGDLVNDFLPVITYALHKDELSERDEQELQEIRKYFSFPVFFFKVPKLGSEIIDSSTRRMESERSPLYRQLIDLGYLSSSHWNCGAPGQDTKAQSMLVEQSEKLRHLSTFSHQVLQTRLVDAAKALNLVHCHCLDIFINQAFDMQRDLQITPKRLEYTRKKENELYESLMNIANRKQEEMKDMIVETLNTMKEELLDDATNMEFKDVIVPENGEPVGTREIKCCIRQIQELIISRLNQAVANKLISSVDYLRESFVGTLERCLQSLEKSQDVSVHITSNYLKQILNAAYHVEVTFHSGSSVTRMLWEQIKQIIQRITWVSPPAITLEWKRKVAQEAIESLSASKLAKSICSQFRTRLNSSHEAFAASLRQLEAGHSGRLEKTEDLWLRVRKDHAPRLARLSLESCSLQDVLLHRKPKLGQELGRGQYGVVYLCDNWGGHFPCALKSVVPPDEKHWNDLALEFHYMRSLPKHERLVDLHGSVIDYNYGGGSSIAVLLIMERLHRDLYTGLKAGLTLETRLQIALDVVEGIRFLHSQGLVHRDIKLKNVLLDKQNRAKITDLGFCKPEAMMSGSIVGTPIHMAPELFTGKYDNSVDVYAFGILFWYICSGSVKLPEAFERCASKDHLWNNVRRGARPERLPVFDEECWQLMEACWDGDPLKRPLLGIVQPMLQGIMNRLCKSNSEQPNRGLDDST
Sequence of TP53RK (Q96S44 whole entry): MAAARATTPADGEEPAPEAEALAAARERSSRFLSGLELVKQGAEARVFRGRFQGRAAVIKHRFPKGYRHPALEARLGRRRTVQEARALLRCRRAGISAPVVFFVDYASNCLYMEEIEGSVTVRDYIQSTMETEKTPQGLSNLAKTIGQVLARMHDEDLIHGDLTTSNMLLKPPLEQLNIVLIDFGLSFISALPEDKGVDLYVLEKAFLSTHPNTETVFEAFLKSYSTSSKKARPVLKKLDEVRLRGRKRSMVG

COc1ccc(-c2ccc3c(N4CCOC[C@@H]4C)nc(N4CCOC[C@@H]4C)nc3n2)cc1CO [AZD8055]
< 6: ABL1 | MAPK8 | CAMKK1 | EPHA4 | PIK3C3 | MYLK | BMX | MAPKAPK3 | RPS6KA5 | PI4KA; affinity matrix / lysate: Kinobeads, mixed HEK293/K-562/placenta lysate | PI4KA; [1] | DSTYK | PCTK1 | EPHB2 | MAP3K3 | CLK1 | PRKD1 | LRRK2 | RPS6KA1 | FGR | EPHA3 | MAP2K1 | GAK | TP53RK | IRAK1 | CDK5 | PRKCA | FYN | MAP3K7 | NTRK1 | PIK3CB | NEK3 | STK38 | SIK2

CCNC(=O)Nc1ccc(-c2nc(N3CCOC[C@@H]3C)c3c(n2)C(C)(C)S(=O)(=O)C3)cc1 [CZ415]
< 6: ABL1 | MAPK8 | CAMKK1 | EPHA4 | PIK3C3 | MYLK | BMX | MAPKAPK3 | RPS6KA5 | PI4KA; [1] | DSTYK | PCTK1 | EPHB2 | MAP3K3 | CLK1 | PRKD1 | LRRK2 | RPS6KA1 | FGR | EPHA3 | MAP2K1 | GAK | TP53RK | IRAK1 | CDK5 | PRKCA | FYN | MAP3K7 | NTRK1 | PIK3CB | NEK3 | STK38 | SIK2
